US20030172478A1, “Bipyrrolinonylidene-type compound, colorant therewith, and method of producton thereof” (DAINIPPON INK AND CHEMICALS, INC., priority 2002, published 2003)

Experiments:
[1] = background statement; cited from earlier work
[2] = solubility of the products in solvents; format: physicochemical

| solubility in dimethyl sulfoxide ([2]; solvent dimethyl sulfoxide) | solubility in dimethylformamide ([2]; solvent dimethylformamide) | solubility in ethanol ([2]; solvent ethanol) | Compound | solubility in water and organic solvents [1] |
| --- | --- | --- | --- | --- |
| – | – | – | O=C1NC(c2ccccc2)=C/C1=C1/C=C(c2ccccc2)NC1=O [formula (b), bipyrrolinonylidene] | poor solubility |
| soluble | soluble | slightly soluble | CCOC(=O)C1=C(c2ccccc2)NC(=O)/C1=C1/C(=O)NC(c2ccccc2)=C1C(=O)OCC [diethyl bipyrrolinonylidenedicarboxylate] | – |
